How the values were obtained:
K562 = details: read-out: IC50 (K562); cytotoxicity, 24 h
Procedure: (§3) The resazurin reduction assay, which is also known as AlamarBlue® assay, was used for the determination of cell viability in all cytotoxicity determinations shown in the present work, as previously described [22]. Briefly, cells were seeded at a specific density depending on the incubation time (24 h: 1 × 10^6 cells/ml) in a 96-well plate and incubated with increasing compound concentrations (0.01–30 µM). After the specified treatment time, resazurin (Sigma, #R7017) was added to a final concentration of 40 µM. […] The viability of control cells was set to 100% and all other values were normalized to the control condition, the dose-response curves were then fitted with Prism v7.01 (GraphPad software, La Jolla, CA, USA). The reduction of resazurin to resorufin is proportional to aerobic respiration; therefore, it is used as a measure for the cell viability and cytotoxicity of a tested compound.

[1] = tested on: DLBCL177 diffuse large B cell lymphoma cells; details: read-out: IC50 (DLBCL177); primary patient cells, 24 h
Source text: (§4) For chronic lymphocytic leukemia, mononuclear cells were isolated from peripheral blood using a Ficoll gradient (GE Healthcare). Primary cells from other lymphoma entities were isolated as previously described [80]. All cells were cryopreserved after isolation and thawed as previously described [81].
(§5) The resazurin reduction assay, which is also known as AlamarBlue® assay, was used for the determination of cell viability in all cytotoxicity determinations shown in the present work, as previously described [22]. Briefly, cells were seeded at a specific density depending on the incubation time (24 h: 1 × 10^6 cells/ml) in a 96-well plate and incubated with increasing compound concentrations (0.01–30 µM). After the specified treatment time, resazurin (Sigma, #R7017) was added to a final concentration of 40 µM. […] The viability of control cells was set to 100% and all other values were normalized to the control condition, the dose-response curves were then fitted with Prism v7.01 (GraphPad software, La Jolla, CA, USA).

SUPB15 = details: read-out: IC50 (SUPB15); cytotoxicity, 24 h
Procedure: as §3

[2] = tested on: FL303 follicular lymphoma cells; details: read-out: IC50 (FL303); primary patient cells, 24 h
Source text: as §4, §3

[3] = tested on: CLL68 chronic lymphocytic leukemia cells; details: read-out: IC50 (CLL68); primary patient cells, 24 h
Source text: as §4, §5

[4] = tested on: CDK9 and cyclin T1 protein levels; test: immunoblotting of CDK9 and cyclin T1 in Ramos cells; format: cell-based, human; details: 0.1 and 1 µM, 4-24 h
Procedure: (§1) Cells were seeded at a density of 2 × 10^6 cells, treated as specified and harvested by centrifugation at 3000 rpm for 5 min, followed by freezing in liquid nitrogen. The cell pellets were thawed on ice and quick-frozen and defrozen in liquid nitrogen for three times, then lysed on ice in lysis buffer (20 mM Tris-HCl, 150 mM NaCl, 1% v/v Triton X-100, 0.5 mM EDTA, 10 mM NaF, 2.5 mM Na4P2O7, protease inhibitor (Sigma, #P2714)) for 30 min, accompanied by vortexing. Subsequently, centrifugation 13,300 rpm for 15 min purified cell lysates from cell debris. The supernatant was transferred to a new tube and the protein concentration was determined by Bradford assay. The samples were diluted with sample buffer. SDS-Page and Western Blot were conducted in accordance with standard workflows. […] The antibody baths were stored at 4 °C and re-used.
(§2) The density of the individual protein band was determined using Image Studio^TM Lite Version 5.2. The density of each protein was divided by the average of all bands of this protein. The ratios of the protein of interest were normalized to the ratio of the respective loading control. To determine the fold change, each normalized ratio was divided by the normalized band of the control line (untreated cells). Fold change is 1 for the control line, n ≥ 2. The results are shown as mean ± standard deviation and were visualized with GraphPad Prism 7.

Ramos cells [5] = test: cell cycle analysis (Nicoletti assay); format: cell-based, human; details: 24 h, sublethal dose, with QVD
Procedure: DNA content during cell cycle and hypodiploid apoptotic nuclei were measured by the method of Nicoletti et al.. […] Hypodiploid nuclei were measured in logarithmic mode for apoptosis determination. Flow-cytometry analysis was performed on an LSRFortessa^TM (Becton, Dickinson, Heidelberg, Germany) and data analysis was performed using FlowJo_V10 (BD Biosciences).

KOPTK1 = details: read-out: IC50 (KOPTK1); cytotoxicity, 24 h
Procedure: as §3

Jurkat = details: read-out: IC50 (Jurkat); cytotoxicity, 24 h
Procedure: as §3

[6] = tested on: RNA polymerase II phosphorylation at Ser2; test: immunoblotting of p-Ser2 RNA polymerase II in Ramos cells; format: cell-based, human; details: 0.1 and 1 µM (R547 1 µM), 4-24 h
Procedure: as §1, §2

DYRK4 = biological target: T1, DYRK4 (Homo sapiens, UniProt Q9NR20); test: kinome screen (33PanQinase); format: biochemical
T1 construct: purchased Reaction Biology Europe GmbH (formerly ProQinase)
T1 sequence (Q9NR20 1-520): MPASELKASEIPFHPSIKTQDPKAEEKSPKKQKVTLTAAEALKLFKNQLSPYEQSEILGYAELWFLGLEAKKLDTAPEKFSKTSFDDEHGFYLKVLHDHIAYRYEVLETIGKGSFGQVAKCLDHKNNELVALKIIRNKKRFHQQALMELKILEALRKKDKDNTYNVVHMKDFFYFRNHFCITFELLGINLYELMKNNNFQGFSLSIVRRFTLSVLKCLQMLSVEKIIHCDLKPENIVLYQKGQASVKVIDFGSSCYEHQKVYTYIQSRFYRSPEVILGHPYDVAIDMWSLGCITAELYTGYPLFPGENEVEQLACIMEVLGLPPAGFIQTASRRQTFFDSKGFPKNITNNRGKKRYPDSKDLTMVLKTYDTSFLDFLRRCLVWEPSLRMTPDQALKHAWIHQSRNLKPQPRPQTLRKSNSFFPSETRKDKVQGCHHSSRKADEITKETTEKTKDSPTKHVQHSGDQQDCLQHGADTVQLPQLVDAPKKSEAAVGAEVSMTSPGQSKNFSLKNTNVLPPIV
Procedure: The Kinome Screening was performed by Reaction Biology Europe GmbH (http://reactionbiology.com; Freiburg i. Br., Germany). […] A kinase inhibition profile of the three meriolins was determined by measuring residual activity at two concentrations each in single values in 335 wild-type protein kinase assays.
The residual activity was calculated as: Res.Activity%=100x(Signalofcompound−lowcontrol/highcontrol−lowcontrol)

Ramos cells [7] = test: BrdU cell proliferation assay; format: cell-based, human; details: 24 h, non-lethal doses
Procedure: The Bromodeoxyuridine (BrdU) Cell Proliferation kit from Millipore (#QIA58-1000TEST) was used to measure proliferation of cells. The manufacturer protocol has been optimized as described in the following. 1 × 10^4 cells per well were seeded in a 96-well plate. The cells were pre-incubated with the compounds of interest for 1 h. Following this, the BrdU solution was added and the cells were incubated for a total of 24 h. BrdU is an analog of the nucleoside thymidine and is incorporated into the DNA of dividing cells during replication. Culture medium was removed and cells were fixed and denatured with Fixative/Denaturing solution for 30 min at room temperature. Since suspension cells were used, they had to be centrifuged at 1200 rpm for 5 min after each following step. After, the anti-BrdU-antibody was incubated for 1 h at RT. Cells were washed three times with washing buffer. The secondary antibody, which is coupled to HRP (horseradish peroxidase) was incubated for 30 min at RT. Again, cells were washed three times with washing buffer.
Then, the substrate solution was added, that contained TMB (3,3’,5,5’-Tetramethylbenzidine), which is oxidized by HRP. Oxidation of TMB causes a color change from colorless to blue. The intensity of color change is correlated with the number of bound peroxidases, which depends on the quantity of primary antibodies and therefore on the content of the incorporated BrdU. If the cells are not proliferating, no BrdU is incorporated, resulting in a weak signal.
After 15 min incubation time the stopping reagent was added, causing a pH change and resulting in a color change from blue to yellow. The colored reaction product was quantified at 450 nm using a spectrophotometer. For all measurements, three technical replicates were made. The control was set to 100% proliferation, and the treated cells were normalized to the control. The results were visualized using GraphPad Prism 7.

[8] = tested on: FL100 follicular lymphoma cells; details: read-out: IC50 (FL100); primary patient cells, 24 h
Source text: as §4, §5

Row | SMILES | IC50 (K562) | IC50 [1] | IC50 (SUPB15) | IC50 [2] | IC50 [3] | CDK9 and cyclin T1 protein levels [4] | effect on cell cycle phases (Ramos cells [5]) | IC50 (KOPTK1) | IC50 (Jurkat) | phosphorylation of RNA polymerase II at Ser2 [6] | residual kinase activity (DYRK4; 0.03 µM) | residual kinase activity (DYRK4; 0.3 µM) | proliferation (BrdU incorporation) (Ramos cells [7]) | IC50 [8] | residual kinase activity (DYRK4; 3 µM)
1 | COc1ccnc2[nH]cc(-c3cc(N)nc(N)c3)c12 [meriolin 16] | 40 nM | 80 nM | 20 nM | 60 nM | 60 nM | decrease | only a slight shift to G2 phase | 10 nM | 30 nM | total loss of the phosphorylation at Ser2 within 4 h | 39 % of control | 7 % of control | substantial decrease in proliferation | 60 nM | –
2 | c1ccc(CNc2cc(-c3c[nH]c4ncccc34)ccn2)cc1 [meriolin 36] | 940 nM | 50 nM | 1650 nM | 170 nM | 420 nM | relatively stable | only a slight shift to G2 phase | 1220 nM | 1430 nM | less pronounced | – | 66 % of control | substantial decrease in proliferation | 90 nM | 22 % of control

— PMC11167047 (Cell Death Discovery, 2024)
